Test [1] concerns the target T1, HIV-1 reverse transcriptase (Human immunodeficiency virus type 1 group M subtype B, UniProt P03367).
T1 construct: Reverse transcriptase enzyme from the LAV strain; made in house; host or cells: E. coli strain JM109, clone pBRTprt1+ in vector pIBI21 (lac promoter)
As to the kind of experiment: Reverse Transcriptase (RT) Assay (RNA-dependent DNA polymerase activity, cell-free, 3H-dGTP incorporation). Format: biochemical. To be noted: read-out: RT Inhibition % @ 10µg/ml. Here is the method: After removal of the insoluble debris by centrifugation, the protein is precipitated by the addition of 3 volumes of saturated aqueous ammonium sulfate.
The 2X concentrated stock reaction mixture is aliquoted and stored at -20°C. […] This enzyme assay has been adapted to a 96 well microtiter plate system, and has been previously described (6). […] Twenty µl of 0.12-0.5M EDTA are added to the first three wells of the microtiter plate.
This group serves as background polymerization which is subtracted from all other groups. Twenty-five µl of the 2X reaction mixture are added to all wells and the assay is allowed to incubate at room temperature for 60 minutes. […] The microtiter plate is incubated for 15 minutes at 4°C and the precipitate is fixed onto #30 glass fiber paper (Schleicher & Schuell) using a Skatron semi-automatic harvester. […] Each vial receives 2 mls of scintillation cocktail and is counted in a Beckman beta counter.

The subject of test [2] is HTLV-IIIB strain of HIV-1. As to the kind of experiment: Human T-Cell Culture Assay (syncytia formation in C8166 cells). The test is classed as cell-based. As to conditions: Human immunodeficiency virus 1, IIIB, 96 h, syncytia read four days after virus challenge, read-out: T-Cell Culture Assay(IC₅₀). Here is the method: In order to confirm that compounds which are active in the RT Assay also have the ability to inhibit HIV replication in a living system, compounds according to the invention were also tested in the human T-Cell Culture Assay described below.
Assay Theory: Formation of syncytia is a feature of in vitro cultures of CD4+ T-cells infected with HIV-1. In this assay, T-cells are treated with a putative replication inhibiting compound and then infected with HIV-1. After incubation the culture is checked for the formation of syncytia. The absence or reduction is the number of syncytia is used as a measure of the test compound's ability to inhibit HIV replication.
Assay Method: The target cells, designated C8166, are a subclone of human lymphoma cells of T-cell origin and are established at an initial density of 5x10⁴ per 100 ul in RPMI 1640 (+ 10% fetal bovine serum) culture medium in 96 well flat bottom plates. A selected amount of test compound, dissolved in DMSO is included. After 24 hours, 50-100 TCID50's (the dose that results in induced effect in 50% of test cultures) of the HTLV-IIIB strain of HIV-1 (2) are innoculated into each culture. Control cultures receive compound or virus only. […] The percent inhibition by the test compound is determined by comparison with control values. […]

Where two headings read alike, the source gives them in different places.

Turning to `CCCN1c2ncccc2NC(=O)c2cccnc21` [Example 2, 5,11-Dihydro-11-propyl-6H-dipyrido[3,2-b:2′,3′-e][1,4]diazepin-6-one], in test [1] (10µg/ml compound), the inhibition at 10 µg/mL was found to be 94%. Turning to `CCCN1c2ncccc2C(=O)N(C)c2cccnc21` [Example 3, 5,11-Dihydro-5-methyl-11-propyl-6H-dipyrido[3,2-b:2′,3′-e][1,4]diazepin-6-one], in test [1] (10µg/ml compound), the inhibition at 10 µg/mL came to 94%. With `CCN1C(=O)c2cccnc2N(CC)c2ncccc21` [Example 4, 5,11-Diethyl-5,11-dihydro-6H-dipyrido[3,2-b:2′,3′-e][1,4]diazepin-6-one], the IC50 in test [2] came to 190 µM. The inhibition at 10 µg/mL in test [1] (10µg/ml compound) turned out to be 98%. On to `CCN1c2ncccc2C(=O)N(C)c2cccnc21` [Example 8, 5,11-Dihydro-11-ethyl-5-methyl-6H-dipyrido[3,2-b:2′,3′-e][1,4]diazepin-6-one], for which the inhibition at 10 µg/mL in test [1] turned out to be 100%.

Values taken from patent publication EP0393529A1, “5,11-dihydro-6H-dipyrido [3,2-b:2',3'-e][1,4]diazepin-6-ones and their use in the prevention or treatment of AIDS” (Boehringer Ingelheim Pharmaceuticals Inc., priority 1989, dated 1990).
